Experimental data published in article PMC5041076, “Ilex kaushue and Its Bioactive Component 3,5-Dicaffeoylquinic Acid Protected Mice from Lipopolysaccharide-Induced Acute Lung Injury” (Scientific Reports, 2016).
“Also recorded” adds a separate entry of the source. Like-named read-outs stand apart in the source and are kept apart here.

Legend:
[1] = test system: LPS-induced ALI in mice; test: LPS-induced ALI in mice; type: in vivo, mouse
Experimental: Mice were randomly divided into nine groups (n = 6 per group): (1) Vehicle, (2) IKWE (500 mg/kg), (3) 3,5-DCQA (50 mg/kg), (4) LPS, (5) LPS + DEX (10 mg/kg), (6) LPS + IKWE (250 mg/kg), (7) LPS + IKWE (500 mg/kg), (8) LPS + 3,5-DCQA (25 mg/kg) and (9) LPS + 3,5-DCQA (50 mg/kg). Agents were dissolved in vehicle solution (PBS containing 10% Tween-80). All animals were pretreated intraperitoneally with 100 μL vehicle solution or agents, respectively, 1 h before PBS or LPS (Sigma, Escherichia coli. 055:B5) intratracheal injection (5 mg/kg in 50 μL of PBS)[26],[27]. Mice were sacrificed at 6 h post-dosage and the left lung collected for histological examination or MPO activity measurement. Lung tissue was fixed with 10% formalin before embedding with paraffin wax and routine H&E staining. MPO activity was measured as described earlier. The right lobes were prepared for W/D weight ratio determination or BALF analysis. To obtain the W/D weight ratio, wet tissues were weighed immediately after collection, dried in the oven at 80 °C for 48 h and re-weighed. For post-treatment experiments, mice treated with vehicle or 3,5-DCQA (50 mg/kg) intraperitoneally 1 h after LPS treatment.
Mice were sacrificed and hilum of the left lung sealed. BALF was collected following injection with 0.2, 0.2, 0.3, 0.3 or 0.5 mL PBS. BALF samples were combined and centrifuged at 1,000 rpm for 15 min at 4 °C. Total proteins in the supernatant fraction were determined using the protein assay dye (BIO-RAD, 500-0006) with BSA as the reference and TNF-α and IL-6 levels measured with ELISA kits (eBioscience, 88-7324-88 and 88-7064-88). Cell pellets from BALF were resuspended in 100 μL PBS and cytospun (200 g, 3 min) onto a glass microscope slide, followed by staining with Liu’s stain. Neutrophils were counted under a light microscope in five randomly selected fields (×200 magnification)[60].

[2] = target: T1, Human proteinase 3 (Homo sapiens, UniProt P24158); test: Serine protease enzyme inhibition assay, proteinase 3; type: biochemical; settings: mean ± S.E.M. (n ≥ 3)
T1 construct: purchased Merk 539483
T1 sequence (P24158 28-256): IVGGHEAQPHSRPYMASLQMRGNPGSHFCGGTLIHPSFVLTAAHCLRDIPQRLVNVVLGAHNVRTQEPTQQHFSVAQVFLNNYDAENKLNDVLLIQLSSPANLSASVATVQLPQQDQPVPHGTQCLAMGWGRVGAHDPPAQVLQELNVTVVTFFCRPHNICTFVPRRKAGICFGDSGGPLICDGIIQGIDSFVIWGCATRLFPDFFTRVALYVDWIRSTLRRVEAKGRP

[3] = test system: Akt; test: Immunoblotting of Akt phosphorylation in fMLF-activated neutrophils; type: cell-based, human; settings: 10 μM, 5 min before fMLF (0.1 μM) 0.5 min, Western blot; listed as 3,5-DCQA
Experimental: (§1) Neutrophils were pretreated with DMSO or 3,5-DCQA (10 μM) for 5 min before fMLF stimulation for 0.5 min at 37 °C. Cells were lysed with lysis buffer consisting of 50 mM HEPES (pH 7.4), 100 mM NaCl, 1 mM Ca^2+, 2 mM Na3VO4, 1 mM phenylmethanesulfonyl fluoride, 5% b-mercaptoethanol, 10 mM p-nitrophenyl phosphate, 1% protease inhibitor cocktail (Sigma-Aldrich) and 1% Triton X-100. Cell lysates were collected by centrifugation at 14,000 rpm for 20 min at 4 °C. After gel electrophoresis and transferring to membranes, samples were blocked with 5% nonfat milk in a mixture of Tris-buffer saline and Tween 20. Target protein was identified by the corresponding primary antibody overnight at 4 °C. Membranes were incubated with horseradish peroxidase-conjugated, secondary anti-rabbit or anti-mouse antibodies at room temperature for 1 h. After washing, enhanced chemiluminescence solution was used and protein expression was analyzed by the BioSpectrum Imaging System (UVP, Upland, CA). The quantitative ratio of target protein was normalized to total protein or GAPDH.

[4] = target: T2, Human cathepsin G (Homo sapiens, UniProt P08311); test: Serine protease enzyme inhibition assay, cathepsin G; type: biochemical; settings: mean ± S.E.M. (n ≥ 3)
T2 construct: purchased Enzo BML-SE283
T2 sequence (P08311 21-255): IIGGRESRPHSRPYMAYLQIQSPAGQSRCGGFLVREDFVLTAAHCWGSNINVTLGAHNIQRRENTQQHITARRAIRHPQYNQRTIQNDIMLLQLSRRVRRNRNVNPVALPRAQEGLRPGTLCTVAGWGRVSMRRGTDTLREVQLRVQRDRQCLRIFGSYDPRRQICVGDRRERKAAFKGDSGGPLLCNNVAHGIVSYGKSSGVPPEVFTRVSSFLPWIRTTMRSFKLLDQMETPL

[5] = test system: fMLF/CB-activated neutrophils; test: Elastase release in fMLF/CB-activated neutrophils; type: cell-based; settings: for IC50: read-out: IC50 HNE (NE activity / elastase release)
Experimental: (§2) All assays were performed as described previously[58],[59]. Neutrophils isolated from the blood of healthy volunteers (20–30 years old) were resuspended in a Ca^2+-free HBSS buffer (pH 7.4) at 4 °C before use. O2^.− generation was measured based on reduction of ferricytochrome c. In brief, after supplementation with 0.5 mg/ml ferricytochrome c and 1 mM Ca^2+, neutrophils were equilibrated at 37 °C for 2 min and incubated with the specified drugs for 5 min. Neutrophils were activated using 30 nM fMLF or 100 nM LTB4 for 10 min after addition of cytochalasin B (CB, 1 μg/mL) for 3 min. Changes in absorbance concomitant with reduction of ferricytochrome c at 550 nm were continuously monitored. For elastase release, neutrophils (6 × 10^5 cells/mL) were mixed with methoxysuccinyl-Ala-Ala-Pro-Val-pNA (100 μM) substrate at 37 °C for 5 min. […] Inhibition of superoxide generation and elastase release were calculated in keeping with previous reports.

[6] = target: T3, Human neutrophil elastase (Homo sapiens, UniProt P08246); test: Serine protease enzyme inhibition assay, HNE; type: biochemical; settings: for Inh % (HNE inhibition): at 30 M (so in the source), Table S3; for IC50: enzyme assay, mean ± S.E.M. (n ≥ 3), read-out: IC50 HNE; for selectivity of inhibitory effect among serine proteases: five serine proteases examined
T3 construct: purchased Enzo BML-SE284
T3 sequence (P08246 30-267): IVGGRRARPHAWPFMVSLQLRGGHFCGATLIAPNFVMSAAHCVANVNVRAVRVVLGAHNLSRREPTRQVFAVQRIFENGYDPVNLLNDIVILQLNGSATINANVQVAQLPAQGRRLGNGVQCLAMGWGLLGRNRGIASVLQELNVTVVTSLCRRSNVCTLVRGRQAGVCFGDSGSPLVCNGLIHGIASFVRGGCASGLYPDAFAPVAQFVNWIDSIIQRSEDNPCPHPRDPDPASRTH

[7] = target: Human thrombin (Homo sapiens, UniProt P00734); test: Serine protease enzyme inhibition assay, thrombin
[8] = test system: LTB4-induced human neutrophils; test: Elastase release in LTB4-induced neutrophils; type: cell-based; settings: Neutrophil, inducer LTB4, Table S2
Experimental: as §2

[9] = test system: fMLF/CB-activated neutrophils; test: O2.- generation in fMLF/CB-activated neutrophils (ferricytochrome c reduction); type: cell-based, human; settings: for IC50 / IC50 O2^.− generation: fMLF/CB-activated human neutrophils
Experimental: as §2

[10] = test system: Vav; test: Immunoblotting of Vav phosphorylation in fMLF-activated neutrophils; type: cell-based, human; settings: 10 μM, 5 min before fMLF (0.1 μM) 0.5 min, Western blot; listed as 3,5-DCQA
Experimental: as §1

[11] = test system: Src family kinases; test: Immunoblotting of Src family kinase phosphorylation in fMLF-activated neutrophils; type: cell-based, human; settings: 10 μM, 5 min before fMLF (0.1 μM) 0.5 min, Western blot; listed as 3,5-DCQA
Experimental: as §1

[12] = test system: human neutrophils; parameters: method as in PMID 12384183; settings: 100 μM, human neutrophils ref 35; cited from earlier work
[13] = test system: LPS-stimulated RAW 264.7 cells; parameters: method as in PMID 25975516; settings: LPS-stimulated RAW 264.7 cells ref 45; cited from earlier work
[14] = after intravenous administration ref 46, 47, 49; cited from earlier work
[15] = target: T4, Bovine chymotrypsin (Bos taurus, UniProt P00766); test: Serine protease enzyme inhibition assay, chymotrypsin; type: biochemical; settings: mean ± S.E.M. (n ≥ 3)
T4 construct: purchased Sigma-Aldrich C4129

[16] = pretreatment i.p. 1 h before LPS, 6 h
[17] = fMLF/CB-activated human neutrophils
[18] = read-out: IC50 Thrombin, enzyme assay, mean ± S.E.M. (n ≥ 3)

Row | IC50 [2] [µM] | IC50 [4] [µM] | IC50 ([5]; Homo sapiens, Neutrophil) [µM] | IC50 [5, 17] [µM] | Inh % (HNE inhibition) [6] [%] | IC50 [6] [µM] | selectivity of inhibitory effect among serine proteases [6] | IC50 [7] [µM] | IC50 ([9]; Neutrophil) [µM] | IC50 [15] [µM] | IC50 HNE (NE activity / elastase release) [5, 17] | IC50 O2^.− generation [9] | IC50 [7, 18] [µM] | IC50 [9] [µM] | Structure (SMILES) | other results
1 | > 30 | > 30 | 12 ± 0.6 | > 10 | 90.53 ± 0.52 | 1.86 ± 0.06 | high selectivity for HNE | > 30 | 1.92 ± 0.54 | > 30 |  |  |  |  | O=C(C=Cc1ccc(O)c(O)c1)OC1CC(O)(C(=O)O)CC(OC(=O)C=Cc2ccc(O)c(O)c2)C1O (centres unmarked) [Compound 6, 3,5-dicaffeoylquinic acid] | pathological features of ALI, post-treatment ([1]; 50 mg/kg i.p. 1 h after LPS): significantly improved; levels of proinflammatory cytokines (TNF-α and IL-6) in BALF [1, 16]: Reduced levels; lung edema (W/D weight ratio) [1, 16]: improve lung edema; accumulation / infiltration of neutrophils in lung tissue (MPO activity, BALF, histology) ([1]; pretreatment i.p. 1 h before LPS, 6 h, listed as 3,5-DCQA): suppress accumulation of neutrophils; also recorded: significantly reduced; pathological features of ALI (hemorrhage, infiltrating neutrophils, thickening of alveolar wall) ([1]; pretreatment i.p. 1 h before LPS, IKWE 500 mg/kg, 3,5-DCQA 50 mg/kg): significantly improved; phosphorylation of Akt [3]: did not inhibited the phosphorylation; IC50 [8]: 2.9 ± 0.55 µM; phosphorylation of Vav [10]: reduce phosphorylation; also recorded: inhibited the phosphorylation; phosphorylation of SFKs [11]: reduce phosphorylation; also recorded: inhibited the phosphorylation; elastase release, myeloperoxidase activity and superoxide production [12]: able to inhibit; TNF-α and IL-6 expression [13]: able to reduce; time detectable in the plasma [14]: 4 h
2 | > 30 | > 30 |  | > 10 | 9.91 ± 0.99 | > 30 |  |  |  | > 30 |  |  | > 30 | 1.7 ± 0.28 | O=C(/C=C/c1ccc(O)c(O)c1)O[C@H]1[C@H](O)C[C@](O)(C(=O)O)C[C@H]1OC(=O)/C=C/c1ccc(O)c(O)c1 [Compound 4, 3,4-DCQA] | 

The next lines start with the compound.

Row | Structure (SMILES) | IC50 [2] [µM] | IC50 [4] [µM] | IC50 ([5]; Homo sapiens, Neutrophil) [µM] | IC50 [5, 17] [µM] | Inh % (HNE inhibition) [6] [%] | IC50 [6] [µM] | selectivity of inhibitory effect among serine proteases [6] | IC50 [7] [µM] | IC50 ([9]; Neutrophil) [µM] | IC50 [15] [µM] | IC50 HNE (NE activity / elastase release) [5, 17] | IC50 O2^.− generation [9] | IC50 [7, 18] [µM] | IC50 [9] [µM] | other results
3 | CC1=C(C)C2C3=CCC4[C@@]5(C)CC[C@H](O)C(C)(C)C5CC[C@@]4(C)[C@]3(C)CC[C@@]2(C(=O)O)CC1 (some centres unmarked) [Compound 15-2, sanguisorbigenin] | 14.8 ± 0.59 | > 30 | 0.2 ± 0.02 |  |  | 24.7 ± 0.48 | non-selective inhibitory effects | 11.8 ± 2.2 | 0.26 ± 0.1 | 11.4 ± 0.2 | good inhibitory effects | good inhibitory effects |  |  | efficacy relative to ursolic acid ([9]; fMLF-induced neutrophils): 5 fold
4 | C=C1C2=C3C=C[C@@H]4[C@@]5(C)CC[C@H](O)C(C)(C)[C@@H]5CC[C@@]4(C)[C@]3(C)CC[C@@]23CC[C@]1(C)OC3=O [Compound 11-2] | 1.99 ± 0.25 | > 30 |  | > 10 |  | 8.55 ± 1.77 | non-selective inhibitory effects |  |  | 6.04 ± 0.29 |  |  | 2.98 ± 0.35 | > 10 | 
5 | C[C@H]1[C@H](C)CC[C@]2(C(=O)O)CC[C@]3(C)C(=CC[C@@H]4[C@@]5(C)CC[C@H](O)C(C)(C)[C@@H]5CC[C@]43C)[C@H]12 [Compound 9, ursolic acid] | 7.33 ± 0.65 | > 30 | 1.07 ± 0.33 |  |  | 11.5 ± 1.28 | non-selective inhibitory effects | 6.37 ± 0.6 | 0.99 ± 0.26 | 6.06 ± 0.05 | good inhibitory effects | good inhibitory effects |  |  | 
